Test results: patent publication US9062046B2, “Substituted imidazoquinoline derivatives as kinase inhibitors” (Piramal Enterprises Limited, priority 2011, dated 2015)

Tests used:
PC3 (prostate cell line) = assay: Cytotoxicity assay (propidium iodide assay), PC3; format: cell-based; settings: PC3 cells, 48 h treatment; for inhibition at 1 µM / IC50: Homo sapiens, PC-3
Summary of the method: (§1)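 A2780 and PC3 cells, 3000/well, were treated with compound for 48 h after 18-24 h attachment. After washing, propidium iodide 7 μg/ml was added, followed by freeze-thaw at −70 °C and a fluorescence read. Viability was taken relative to untreated wells, with IC50 derived from the curves.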

[1] = test system: A2780 (ovarian cell line); assay: Cytotoxicity assay (propidium iodide assay), A2780; format: cell-based; settings: A2780 cells, 48 h treatment; for inhibition at 1 µM / IC50: Homo sapiens
Summary of the method: as §1

Compound	inhibition at 1 µM (PC3 (prostate cell line); 1 μM)	inhibition at 1 µM ([1]; 1 μM)	IC50 (PC3 (prostate cell line))	IC50 [1]	other results
Cn1c(=NC#N)n(-c2ccc(C(C)(C)C#N)nc2)c2c3cc(-c4ccc5ncccc5c4)ccc3ncc21 [Example 56, N-(1-(6-(2-cyanopropan-2-yl)pyridin-3-yl)-3-methyl-8-(quinolin-6-yl)-1H-imidazo[4,5-c]quinolin-2(3H)-ylidene)cyanamide]	30 to 70%	≥ 70%			
Cn1c(=NC#N)n(-c2ccc(C(C)(C)C#N)cc2)c2c3cc(C4=CCN(C(=O)OC(C)(C)C)CC4)ccc3ncc21 [Example 89, tert-butyl 4-(2-(cyanoimino)-1-(4-(2-cyanopropan-2-yl)phenyl)-3-methyl-2,3-dihydro-1H-imidazo[4,5-c]quinolin-8-yl)-5,6-dihydropyridine-1(2H)-carboxylate]	< 30%	30 to 70%			
COc1ccc(-n2c(=NC#N)n(C)c3cnc4ccc(-c5cncc(C(F)(F)F)c5)cc4c32)cn1 [Example 25, N-(1-(6-methoxypyridin-3-yl)-3-methyl-8-(5-(trifluoromethyl)pyridin-3-yl)-1H-imidazo[4,5-c]quinolin-2(3H)-ylidene)cyanamide]	30 to 70%	≥ 70%			
Cn1c(=NC#N)n(-c2ccc(C(C)(C)C#N)cc2)c2c3cc(-c4cnc(N)c(C(F)(F)F)c4)ccc3ncc21 [Example 6, N-(8-(6-amino-5-(trifluoromethyl)pyridin-3-yl)-1-(4-(2-cyanopropan-2-yl)phenyl)-3-methyl-1H-imidazo[4,5-c]quinolin-2(3H)-ylidene)cyanamide]			≤ 0.5 µM	≤ 0.5 µM	
COc1ccc(-n2c(=NC#N)n(C)c3cnc4ccc(-c5cccc(F)c5)cc4c32)cn1 [Example 40, N-(8-(3-fluorophenyl)-1-(6-methoxypyridin-3-yl)-3-methyl-1H-imidazo[4,5-c]quinolin-2(3H)-ylidene)cyanamide]	< 30%	30 to 70%			
COc1ncc(-c2ccc3ncc4c(c3c2)n(-c2ccc(OC(F)(F)F)cc2)c(=NC#N)n4C)cc1N [Example 106, N-(8-(5-amino-6-methoxypyridin-3-yl)-3-methyl-1-(4-(trifluoromethoxy)phenyl)-1H-imidazo[4,5-c]quinolin-2(3H)-ylidene)cyanamide]			≤ 0.5 µM	≤ 0.5 µM	
COc1cc(OC)cc(-n2c(=NC#N)n(C)c3cnc4ccc(-c5cnc(OC)c(N)c5)cc4c32)c1 [Example 99, N-(8-(5-amino-6-methoxypyridin-3-yl)-1-(3,5-dimethoxyphenyl)-3-methyl-1H-imidazo[4,5-c]quinolin-2(3H)-ylidene)cyanamide]			0.5 to 2 µM	≤ 0.5 µM	
Cc1cc(-c2ccc3ncc4c(c3c2)n(-c2ccc(C(C)(C)C#N)nc2)c(=NC#N)n4C)cnc1N1CCN(C(=O)OC(C)(C)C)CC1 [Example 119, tert-butyl 4-(5-(2-(cyanoimino)-1-(6-(2-cyanopropan-2-yl)pyridin-3-yl)-3-methyl-2,3-dihydro-1H-imidazo[4,5-c]quinolin-8-yl)-3-methylpyridin-2-yl)piperazine-1-carboxylate]	≥ 70%	≥ 70%			
Cn1c(=NC#N)n(-c2ccc(C(C)(C)C#N)cc2)c2c3cc(-c4ccc5cc[nH]c5c4)ccc3ncc21 [Example 94, N-(1-(4-(2-cyanopropan-2-yl)phenyl)-8-(1H-indol-6-yl)-3-methyl-1H-imidazo[4,5-c]quinolin-2(3H)-ylidene)cyanamide]			≤ 0.5 µM	≤ 0.5 µM	
COc1ccc(-n2c(=NC#N)n(C)c3cnc4ccc(-c5ccccc5OC(C)C)cc4c32)cn1 [Example 27, N-(8-(2-isopropoxyphenyl)-1-(6-methoxypyridin-3-yl)-3-methyl-1H-imidazo[4,5-c]quinolin-2(3H)-ylidene)cyanamide]	< 30%	< 30%			
COc1ccccc1-c1ccc2ncc3c(c2c1)n(-c1ccc(C(C)(C)C#N)nc1)c(=NC#N)n3C [Example 53, N-(1-(6-(2-cyanopropan-2-yl)pyridin-3-yl)-8-(2-methoxyphenyl)-3-methyl-1H-imidazo[4,5-c]quinolin-2(3H)-ylidene)cyanamide]	< 30%	30 to 70%			
Cn1c(=NC#N)n(-c2ccc(C(C)(C)C#N)cc2)c2c3cc(-c4cnc5ccccc5c4)ccc3ncc21 [Example 7, N-(1-(4-(2-cyanopropan-2-yl)phenyl)-3-methyl-8-(quinolin-3-yl)-1H-imidazo[4,5-c]quinolin-2(3H)-ylidene)cyanamide]			≤ 0.5 µM	≤ 0.5 µM	
COc1ccc(-n2c(=NC#N)n(C)c3cnc4ccc(-c5cccnc5)cc4c32)c(OC)c1 [Example 101, N-(1-(2,4-dimethoxyphenyl)-3-methyl-8-(pyridin-3-yl)-1H-imidazo[4,5-c]quinolin-2(3H)-ylidene)cyanamide]			≤ 0.5 µM	≤ 0.5 µM	
COc1ccc(-n2c(=NC#N)n(C)c3cnc4ccc(-c5cnc(OC)c(N)c5)cc4c32)c(OC)c1 [Example 13, N-(8-(5-amino-6-methoxypyridin-3-yl)-1-(2,4-dimethoxyphenyl)-3-methyl-1H-imidazo[4,5-c]quinolin-2(3H)-ylidene)cyanamide]	≥ 70%	≥ 70%			
COc1ccc(-n2c(=NC#N)n(C)c3cnc4ccc(-c5ccccc5OC)cc4c32)cn1 [Example 49, N-(8-(2-methoxyphenyl)-1-(6-methoxypyridin-3-yl)-3-methyl-1H-imidazo[4,5-c]quinolin-2(3H)-ylidene)cyanamide]	< 30%	30 to 70%			
Cn1c(=NC#N)n(-c2ccc(C(C)(C)C#N)cc2)c2c3cc(-c4cc(C(F)(F)F)ccc4F)ccc3ncc21 [Example 87, N-(1-(4-(2-cyanopropan-2-yl)phenyl)-8-(2-fluoro-5-(trifluoromethyl)phenyl)-3-methyl-1H-imidazo[4,5-c]quinolin-2(3H)-ylidene)cyanamide]	< 30%	30 to 70%			
COc1ccc(-c2ccc3ncc4c(c3c2)n(-c2ccc(C(C)(C)C#N)cc2)c(=NC#N)n4C)cn1 [Example 91, N-(1-(4-(2-cyanopropan-2-yl)phenyl)-8-(6-methoxypyridin-3-yl)-3-methyl-1H-imidazo[4,5-c]quinolin-2(3H)-ylidene)cyanamide]			≤ 0.5 µM	≤ 0.5 µM	
Cc1ccc(-c2ccc3ncc4c(c3c2)n(-c2ccc(C(C)(C)C#N)nc2)c(=NC#N)n4C)cc1 [Example 67, N-(1-(6-(2-cyanopropan-2-yl)pyridin-3-yl)-3-methyl-8-p-tolyl-1H-imidazo[4,5-c]quinolin-2(3H)-ylidene)cyanamide]	30 to 70%	30 to 70%			
COc1ccc(F)cc1-c1ccc2ncc3c(c2c1)n(-c1ccc(C(C)(C)C#N)nc1)c(=NC#N)n3C [Example 52, N-(1-(6-(2-cyanopropan-2-yl)pyridin-3-yl)-8-(5-fluoro-2-methoxyphenyl)-3-methyl-1H-imidazo[4,5-c]quinolin-2(3H)-ylidene)cyanamide]	< 30%	< 30%			
COc1ccc(-n2c(=NC#N)n(C)c3cnc4ccc(-c5cccnc5C)cc4c32)cn1 [Example 45, N-(1-(6-methoxypyridin-3-yl)-3-methyl-8-(2-methylpyridin-3-yl)-1H-imidazo[4,5-c]quinolin-2(3H)-ylidene)cyanamide]	< 30%	30 to 70%			
Cn1c(=NC#N)n(-c2ccc(C(C)(C)C#N)nc2)c2c3cc(-c4ccncc4)ccc3ncc21 [Example 81, N-(1-(6-(2-cyanopropan-2-yl)pyridin-3-yl)-3-methyl-8-(pyridin-4-yl)-1H-imidazo[4,5-c]quinolin-2(3H)-ylidene)cyanamide]			≤ 0.5 µM	≤ 0.5 µM	
COc1ccc(-n2c(=NC#N)n(C)c3cnc4ccc(-c5ccc(O)cc5)cc4c32)cn1 [Example 46, N-(8-(4-hydroxyphenyl)-1-(6-methoxypyridin-3-yl)-3-methyl-1H-imidazo[4,5-c]quinolin-2(3H)-ylidene)cyanamide]	30 to 70%	≥ 70%			
Cn1c(=NC#N)n(-c2ccc(OC(F)(F)F)cc2)c2c3cc(-c4ccncc4)ccc3ncc21 [Example 109, N-(3-methyl-8-(pyridin-4-yl)-1-(4-(trifluoromethoxy)phenyl)-1H-imidazo[4,5-c]quinolin-2(3H)-ylidene)cyanamide]			0.5 to 2 µM	≤ 0.5 µM	
COc1ccc(-n2c(=NC#N)n(C)c3cnc4ccc(-c5ccncc5)cc4c32)cn1 [Example 14, N-(1-(6-methoxypyridin-3-yl)-3-methyl-8-(pyridin-4-yl)-1H-imidazo[4,5-c]quinolin-2(3H)-ylidene)cyanamide]	30 to 70%	≥ 70%			
COc1ccc(-n2c(=NC#N)n(C)c3cnc4ccc(-c5cc(F)ccc5OC)cc4c32)cn1 [Example 47, N-(8-(5-fluoro-2-methoxyphenyl)-1-(6-methoxypyridin-3-yl)-3-methyl-1H-imidazo[4,5-c]quinolin-2(3H)-ylidene)cyanamide]	< 30%	< 30%			
N-(1-(6-methoxypyridin-3-yl)-3-methyl-8-(4-(trifluoromethyl)phenyl)-1H-imidazo[4,5-c]quinolin-2(3H)-ylidene)cyanamide [Example 43]					% Inhibition at 1 μM, PC3 (PC3 (prostate cell line); 1 μM): + (<30%); % Inhibition at 1 μM, A2780 ([1]; 1 μM): + (<30%)
Cn1c(=NC#N)n(-c2ccc(C(C)(C)C#N)nc2)c2c3cc(-c4ccc(N5CCN(C(=O)OC(C)(C)C)CC5)nc4)ccc3ncc21 [Example 72, tert-butyl 4-(5-(2-(cyanoimino)-1-(6-(2-cyanopropan-2-yl)pyridin-3-yl)-3-methyl-2,3-dihydro-1H-imidazo[4,5-c]quinolin-8-yl)pyridin-2-yl)piperazine-1-carboxylate]	< 30%	< 30%			
